# From ChEMBL document CHEMBL3885861, “Open TG-GATES”
# Species: Rattus norvegicus
# Test: Open TG-GATES - Regimen: Single
# Assay type: toxicity, organism-based, Sprague-Dawley
# Parameters: regimen Single, gender Male, age 6 weeks
# Conditions: in vivo, po, route gavage; for gamma-GTP / ALP / ALT / AST / BUN / CRE / Ca / DBIL / GLC / IP / K / LDH / Na / PL / RALB / TBIL / TC / TG / TP: tissue Plasma; for APTT / Bas / Eos / Fbg / Hb / Ht / Lym / MCH / MCHC / MCV / Mono / Neu / PT / Plat / RBC / Ret / WBC: tissue Blood; for KIDNEY_L / KIDNEY_R / KIDNEY_TOTAL: tissue Kidney
smiles,measurement,setting,value
CSc1ccc2c(c1)N(CCC1CCCCN1C)c1ccccc1S2 (stereo unspecified) [THIORIDAZINE],gamma-GTP,"0 mg/kg, 24 h, dose level Control",1.2 IU/L
same,TERMINAL_BW,"10 mg/kg, 3 h, dose level Low",216.5 g
same,APTT,"10 mg/kg, 3 h, dose level Low",16.2 s
same,Bas,"10 mg/kg, 3 h, dose level Low",0%
same,Eos,"10 mg/kg, 3 h, dose level Low",0.6%
same,Fbg,"10 mg/kg, 3 h, dose level Low",201 mg/dL
same,Hb,"10 mg/kg, 3 h, dose level Low",12.6 g/dL
same,Ht,"10 mg/kg, 3 h, dose level Low",37.5%
same,Lym,"10 mg/kg, 3 h, dose level Low",77%
same,MCH,"10 mg/kg, 3 h, dose level Low",22.5 pg
same,MCHC,"10 mg/kg, 3 h, dose level Low",33.6%
same,MCV,"10 mg/kg, 3 h, dose level Low",67.1 fL
same,Mono,"10 mg/kg, 3 h, dose level Low",9.8%
same,Neu,"10 mg/kg, 3 h, dose level Low",13%
same,PT,"10 mg/kg, 3 h, dose level Low",12.2 s
same,Plat,"10 mg/kg, 3 h, dose level Low",94.9 x10_4/uL
same,RBC,"10 mg/kg, 3 h, dose level Low",560.4 x10_4/ul
same,Ret,"10 mg/kg, 3 h, dose level Low",8%
same,WBC,"10 mg/kg, 3 h, dose level Low",87.7 x10_2/uL
same,KIDNEY_L,"10 mg/kg, 3 h, dose level Low",1 g
same,KIDNEY_R,"10 mg/kg, 3 h, dose level Low",1 g
same,KIDNEY_TOTAL,"10 mg/kg, 3 h, dose level Low",2 g
same,LIVER,"10 mg/kg, 3 h, tissue Liver, dose level Low",10.5 g
same,ALP,"10 mg/kg, 3 h, dose level Low",973.8 IU/L
same,ALT,"10 mg/kg, 3 h, dose level Low",36.8 IU/L
same,AST,"10 mg/kg, 3 h, dose level Low",65.4 IU/L
same,BUN,"10 mg/kg, 3 h, dose level Low",13.2 mg/dL
same,CRE,"10 mg/kg, 3 h, dose level Low",0.5 mg/dL
same,Ca,"10 mg/kg, 3 h, dose level Low",11.2 mg/dL
same,DBIL,"10 mg/kg, 3 h, dose level Low",0.016 mg/dL
same,GLC,"10 mg/kg, 3 h, dose level Low",205.6 mg/dL
same,IP,"10 mg/kg, 3 h, dose level Low",10.7 mg/dL
same,K,"10 mg/kg, 3 h, dose level Low",5.1 meq/L
same,LDH,"10 mg/kg, 3 h, dose level Low",95 IU/L
same,Na,"10 mg/kg, 3 h, dose level Low",139.4 meq/L
same,PL,"10 mg/kg, 3 h, dose level Low",140.2 mg/dL
same,RALB,"10 mg/kg, 3 h, dose level Low",3.7 g/dL
same,TBIL,"10 mg/kg, 3 h, dose level Low",0.3 mg/dL
same,TC,"10 mg/kg, 3 h, dose level Low",76.8 mg/dL
same,TG,"10 mg/kg, 3 h, dose level Low",69.2 mg/dL
same,TP,"10 mg/kg, 3 h, dose level Low",5.3 g/dL
same,gamma-GTP,"10 mg/kg, 3 h, dose level Low",0.8 IU/L
same,TERMINAL_BW,"10 mg/kg, 6 h, dose level Low",214.5 g
same,APTT,"10 mg/kg, 6 h, dose level Low",16.8 s
same,Bas,"10 mg/kg, 6 h, dose level Low",0%
same,Eos,"10 mg/kg, 6 h, dose level Low",1%
same,Fbg,"10 mg/kg, 6 h, dose level Low",210.6 mg/dL
same,Hb,"10 mg/kg, 6 h, dose level Low",13.1 g/dL
same,Ht,"10 mg/kg, 6 h, dose level Low",39%
same,Lym,"10 mg/kg, 6 h, dose level Low",78.8%
same,MCH,"10 mg/kg, 6 h, dose level Low",22 pg
same,MCHC,"10 mg/kg, 6 h, dose level Low",33.5%
same,MCV,"10 mg/kg, 6 h, dose level Low",65.8 fL
same,Mono,"10 mg/kg, 6 h, dose level Low",8.6%
same,Neu,"10 mg/kg, 6 h, dose level Low",12%
same,PT,"10 mg/kg, 6 h, dose level Low",12.2 s
same,Plat,"10 mg/kg, 6 h, dose level Low",109 x10_4/uL
same,RBC,"10 mg/kg, 6 h, dose level Low",593 x10_4/ul
same,Ret,"10 mg/kg, 6 h, dose level Low",8.6%
same,WBC,"10 mg/kg, 6 h, dose level Low",129.7 x10_2/uL
same,KIDNEY_L,"10 mg/kg, 6 h, dose level Low",1 g
same,KIDNEY_R,"10 mg/kg, 6 h, dose level Low",1 g
same,KIDNEY_TOTAL,"10 mg/kg, 6 h, dose level Low",2 g
same,ALP,"10 mg/kg, 6 h, dose level Low",779.8 IU/L
same,ALT,"10 mg/kg, 6 h, dose level Low",27.6 IU/L
same,AST,"10 mg/kg, 6 h, dose level Low",62.4 IU/L
same,BUN,"10 mg/kg, 6 h, dose level Low",11.8 mg/dL
same,CRE,"10 mg/kg, 6 h, dose level Low",0.5 mg/dL
same,Ca,"10 mg/kg, 6 h, dose level Low",10.8 mg/dL
same,DBIL,"10 mg/kg, 6 h, dose level Low",0.022 mg/dL
same,GLC,"10 mg/kg, 6 h, dose level Low",192.4 mg/dL
same,IP,"10 mg/kg, 6 h, dose level Low",10.2 mg/dL
same,K,"10 mg/kg, 6 h, dose level Low",4.9 meq/L
same,LDH,"10 mg/kg, 6 h, dose level Low",94 IU/L
same,Na,"10 mg/kg, 6 h, dose level Low",138.8 meq/L
same,PL,"10 mg/kg, 6 h, dose level Low",136.4 mg/dL
same,RALB,"10 mg/kg, 6 h, dose level Low",3.7 g/dL
same,TBIL,"10 mg/kg, 6 h, dose level Low",0.4 mg/dL
same,TC,"10 mg/kg, 6 h, dose level Low",71.6 mg/dL
same,TG,"10 mg/kg, 6 h, dose level Low",60.2 mg/dL
same,TP,"10 mg/kg, 6 h, dose level Low",5.4 g/dL
